Common to all, as to type: in vivo
One data set relates to Aphis craccivora. In words: Insecticidal activity against Aphis craccivora (Potter spray tower). The settings on record: read-out: Mortality rate (%) A. craccivora. How it is done: (§1) Preparation of test agent. Dissolve accurately weighed tested compound in DMF to prepare 1% mother liquor, and then dilute it with distilled water containing 0.1% Tween-80 to corresponding concentrations for later use.
Insecticidal activity against Aphis craccivora ([Liu et al., 2022]). About 30 nymphs of alfalfa aphid were placed on a horsebean leaf dish, and then 2.5 ml of the tested agent was sprayed with Potter spray tower. After treatment, they were cultured in an observation room at 20–22°C. The result was counted 24 h later, and the no-response insect body when it was lightly touched with tweezers was regarded as dead. Each treatment was repeated three times, and DMF without the tested compound was used as a blank control.
(§2) The insecticidal activities of the test compounds against the abovementioned five insects were calculated by the following formula: P1=(K/N)×100, (1) P2=(Pt−P0)/(1−P0)×100, (2) where P1 is the mortality rate; K is the dead insect number; N is the total number of experimental insects; P2 is the corrected mortality rate; Pt is the mortality rate of treatment; P0 is the mortality rate of CK. If the mortality rate of CK is less than 5%, without the required correction, and if the mortality rate of CK is between 5 and 20%, P2 should be calculated according to formula II.

The subject of a further data set is Nilaparvata lugens. Briefly: Insecticidal activity against Nilaparvata lugens (Potter spray tower). The settings on record: 24 h, read-out: Mortality rate (%) N. lugens.
Source text: as §1
Insecticidal activity against Nilaparvata lugens ([Ghareeb et al., 2021]). The seedlings with two leaves and one heart were placed in a Petri dish with a bottom diameter of 3 cm and covered with white sand. After the 3rd instar nymphae of N. lugens were stunned by CO2, about 15 nymphae were received in each dish, and then 2.5 ml of the tested agent was sprayed with Potter spray tower. The mortality of N. lugens was investigated 1 day after the treatment. Each treatment was repeated three times, and DMF without the tested compound was used as a blank control.
as §2

The subject of another data set is Plutella xylostella. In words: Insecticidal activity against Plutella xylostella (soaking method). The settings on record: for mortality at 25 µg/mL / mortality at 100 µg/mL / mortality at 400 µg/mL: Plutella xylostella, 48 h, read-out: Mortality rate (%) P. xylostella.
Source text: as §1
Insecticidal activity against Plutella xylostella ([Yang et al., 2021]). The soaking method was adopted. After soaking a proper amount of radish leaves for 10 s, it was placed in a plastic Petri dish with filter paper and dried naturally in the shade. Each dish was inoculated with 10 2nd instar P. xylostella larvae and placed in an observation room at 22°C with light (16/8 h). The result was counted 2 days later, and the no-response insect body when it was lightly touched with a brush was regarded as dead. Each treatment was repeated three times, and DMF without the tested compound was used as a blank control.
as §2

Another data set concerns Chilo suppressalis. In words: Insecticidal activity against Chilo suppressalis (soaking method). The settings on record: 96 h, read-out: Mortality rate (%) C. suppressalis.
Source text: as §1
Insecticidal activity against Chilo suppressalis ([Huang et al., 2022]). The soaking method was adopted. The Zizania latifolia slices were soaked in a tested solution for 10 s, then taken out, and placed in a plastic Petri dish with filter paper to naturally dry in the shade. […] The result was counted 4 days later, and the no-response insect body when it was lightly touched with a brush was regarded as dead. Each treatment was repeated three times, and DMF without the tested compound was used as a blank control.
as §2

The test system of a further data set is Helicoverpa armigera. Briefly: Insecticidal activity against Helicoverpa armigera (soaking method). Particulars: for mortality at 400 µg/mL: Helicoverpa armigera, 48 h, read-out: Mortality rate (%) H. armigera.
Source text: as §1
Insecticidal activity against Helicoverpa armigera. The soaking method was adopted ([Yang et al., 2022]). After soaking a proper amount of corn leaves for 10 s, they were placed in a plastic Petri dish with filter paper and dried naturally in the shade. Ten larvae of the 2nd instar H. armigera were attached to each dish and placed in an observation room at 26°C with light (16/8 h). The result was counted 2 days later, and the no-response insect body when it was lightly touched with a brush was regarded as dead. Each treatment was repeated 3 times, and DMF without the tested compound was used as a blank control.
as §2

Data set [1] has as its system honeybees (Apis mellifera). In words: Bee contact toxicity. Particulars: for Mortality: 1 μL of 10 × 10^4 mg A.I./L per bee. The method, then:
(§3) The test bees were Italian bees (Apis mellifera), and the newly born adult worker bees (<24 h) were selected for drug drip treatment. Weigh 50 mg of test substance FLP and fully dissolve it in DMSO to obtain 10 × 10^4 mg A.I./L of stock liquid medicine; dissolve B4 fully in DMSO and fix the volume to a 1-ml volumetric flask to obtain 11.6 × 10^4 mg A.I./L stock solution.
Contact toxicity. 10 × 10^4 mg A.I./L of mother liquor was used as the test liquid, and 1 μL of the solution containing the tested drug was dripped onto the back of the front chest of bees by a micro-dropper. Then, bees were put into a beekeeping box and cultured in dark conditions at a temperature of 30 ± 1°C and relative humidity of 50%, with a 50% sucrose solution as food for 48 h. Taking the solvent drip bees without the drug to be tested as the blank control, the treatment group and the control group were set up with three replicates, and 10 bees were used in each replicate.
(§4) Statistical analysis. Using the statistical software SPSS16.0, the LD50 value and 95% confidence limit of the half lethal dose of the sample to bees were obtained by regression statistical analysis with the probit analysis method.

The subject of data set [2] is honeybees (Apis mellifera). In words: Bee acute oral toxicity. Particulars: adult bees; time not stated. How it is done: as §3
Oral toxicity. Before the formal experiment, a pre-experiment was carried out. According to the formal experimental conditions, three to four dose groups were set at large intervals to observe the death of bees between 24 and 48 h and determine the linear range of the lethal effect of drugs on bees. According to the pre-test results, determine the concentration range of the formal test and set five to seven test dose groups. Starve bees for 2 h before being infected, and then eliminate bees that are dying or have abnormal behaviors; put 200 μL of test liquid medicine in the feeding tube, and after the liquid medicine is consumed (within 6 h), take out the feeder to measure the weight of the food that has not been consumed. Then, the bees were fed with sucrose solution without test samples. Cultivate in the dark. At the same time, feeding 50% sucrose solution as a blank control, the treatment group and the control group were set up with three replicates, and 20 bees were used in each replicate. According to the results of the pre-experiment, if the toxicity of the drug to bees is low, the upper limit dose of 100 μg a.i./bee is set for the limit test of bees, that is, when the tested substance reaches 100 μg a.i./bee, no bees die, so there is no need to continue the test. If the solubility of the test substance is less than 100 μg a. i./bee, the maximum solubility is adopted as the upper limit concentration. The test results were examined at 24 and 48 h, respectively, and the number of deaths and poisoning symptoms were recorded. The standard of death is touching the bee's body, and when it can't crawl, it is judged as death.
as §4

[3] abbreviates: 25 μg/mL, 2nd instar larvae, counted 2 days later.
Where [4] appears, read: 400 μg/mL, 2nd instar larvae, counted 2 days later.
[5] abbreviates: 100 μg/mL, 3rd instar nymphae, 1 day after treatment.
Where [6] appears, read: 400 μg/mL, 3rd instar nymphae, 1 day after treatment.
Setting [7] is: 400 μg/mL, 3rd instar larvae, counted 4 days later.

Where “and” joins values, the source holds several entries; their conditions need not be identical. Equal entries are not always repeated. Where two headings read alike, the source gives them in different places. A value given as a limit tells only on which side of the number the result lay.

Six molecules from article PMC9574050, “Design, synthesis, and insecticidal activity of a novel series of flupyrimin analogs bearing 1-aryl-1H-pyrazol-4-yl subunits” (Frontiers in Chemistry, 2022) can be followed below.

With `O=C(N=c1ccccn1Cc1ccc(Cl)nc1)C(F)(F)F` [FLP, flupyrimin], the mortality at 100 µg/mL is 100% with Aphis craccivora (24 h), 100% in the data set on Nilaparvata lugens and 0% in the data set with Plutella xylostella. Moreover, the mortality at 400 µg/mL was determined as 100% in the data set on Aphis craccivora (24 h); 100% in the data set on Nilaparvata lugens; 100% in the data set on Plutella xylostella; 100% with Chilo suppressalis; 0% with Helicoverpa armigera. Further, the “Mortality rate (%) P. xylostella” value in the data set on Plutella xylostella (setting [3]) was “no insecticidal activity”. Further, in the data set with Plutella xylostella, the mortality at 25 µg/mL is 0%. The “Mortality rate (%) H. armigera” value in the data set on Helicoverpa armigera (setting [4]) is “inactive”. This molecule showed an LD50 in data set [1] (Contact toxicity, 24 h) of over 11.0 μg a.i./bee. The Toxicity level result in data set [1] (Contact toxicity, 24 h) is “Low toxicity”; in data set [1] (Contact toxicity, 48 h), “Low toxicity”. Moreover, the Mortality was 12 and 9 in data set [1] (Contact toxicity, 24 h); 13 and 20 in data set [1] (Contact toxicity, 48 h). The LD50 contact toxicity in data set [1] (adult bees, time not stated) is recorded as over 11.0 μg a.i./bee. In data set [2], the LD50 oral toxicity is over 11.0 μg a.i./bee.

In the case of `Cn1cc(C(=O)/N=c2\ccccn2Cc2cnn(-c3ccc(F)cc3)c2C(F)F)c(C(F)F)n1` [Compound D7, (E)-3-(difluoromethyl)-N-(1-((5-(difluoromethyl)-1-(4-fluorophenyl)-1H-pyrazol-4-yl)methyl)pyridin-2(1H)-ylidene)-1-methyl-1H-pyrazole-4-carboxamide], the mortality at 400 µg/mL in the data set with Aphis craccivora (400 μg/mL, counted 24 h later) amounted to 0%; with Nilaparvata lugens (setting [6]) it was 100%; in the data set with Plutella xylostella (setting [4]), 73.3%; in the data set with Chilo suppressalis (setting [7]) it was 0%; in the data set on Helicoverpa armigera (setting [4]), 0%. In addition, the mortality at 100 µg/mL in the data set on Nilaparvata lugens (setting [5]) is 0%.

Turning to `O=C(/N=c1\ccccn1Cc1cnn(-c2ccc(F)cc2)c1C(F)F)C(F)(F)F` [Compound A8, (E)-N-(1-((5-(difluoromethyl)-1-(4-fluorophenyl)-1H-pyrazol-4-yl)methyl)pyridin-2(1H)-ylidene)-2,2,2-trifluoroacetamide], the mortality at 400 µg/mL with Aphis craccivora (400 μg/mL, counted 24 h later) came to 0%; with Nilaparvata lugens (setting [6]), 0%; in the data set with Plutella xylostella (setting [4]) it was 0%; in the data set on Chilo suppressalis (setting [7]), 0%; with Helicoverpa armigera (setting [4]) it was 0%.

On to `COCC(=O)/N=c1\ccccn1Cc1cnn(-c2ccccc2Cl)c1C(F)(F)F` [Compound B2, (E)-N-(1-((1-(2-chlorophenyl)-5-(trifluoromethyl)-1H-pyrazol-4-yl)methyl)pyridin-2(1H)-ylidene)-2-methoxyacetamide], for which the mortality at 400 µg/mL was 0% with Aphis craccivora (400 μg/mL, counted 24 h later); 0% with Nilaparvata lugens (setting [6]); 100% in the data set with Plutella xylostella (setting [4]); 0% in the data set with Chilo suppressalis (setting [7]); 0% in the data set with Helicoverpa armigera (setting [4]). In addition, the mortality at 25 µg/mL in the data set on Plutella xylostella (setting [3]) is over 70%. Further, in the data set on Plutella xylostella (100 μg/mL, 2nd instar larvae, counted 2 days later), the mortality at 100 µg/mL stood at 96.7%.

On to `Cn1cc(C(=O)/N=c2\ccccn2Cc2cnn(-c3cccc(F)c3)c2C(F)(F)F)c(C(F)F)n1` [Compound D3, (E)-3-(difluoromethyl)-N-(1-((1-(3-fluorophenyl)-5-(trifluoromethyl)-1H-pyrazol-4-yl)methyl)pyridin-2(1H)-ylidene)-1-methyl-1H-pyrazole-4-carboxamide], for which the mortality at 400 µg/mL in the data set with Aphis craccivora (400 μg/mL, counted 24 h later) stood at 0%; in the data set on Nilaparvata lugens (setting [6]) it was 100%; in the data set with Plutella xylostella (setting [4]) it was 63.3%; with Chilo suppressalis (setting [7]), 0%; in the data set with Helicoverpa armigera (setting [4]), 0%. The mortality at 100 µg/mL in the data set with Nilaparvata lugens (setting [5]) is 0%.

With `O=C(/N=c1\ccccn1Cc1cnn(-c2ccccc2)c1C(F)(F)F)C(F)(F)C(F)(F)F` [Compound C1, (E)-2,2,3,3,3-pentafluoro-N-(1-((1-phenyl-5-(trifluoromethyl)-1H-pyrazol-4-yl)methyl)pyridin-2(1H)-ylidene)propanamide], the mortality at 400 µg/mL was determined as 0% with Aphis craccivora (400 μg/mL, counted 24 h later); 0% in the data set with Nilaparvata lugens (setting [6]); 0% in the data set on Plutella xylostella (setting [4]); 0% with Chilo suppressalis (setting [7]); 0% with Helicoverpa armigera (setting [4]).
